Target: T1, p300 catalytic domain (Homo sapiens, UniProt Q09472)
T1 construct: 40 ng/ml recombinant purified p300 catalytic domain (Millipore); purchased Millipore
T1 sequence (Q09472 1287-1663 limits assumed): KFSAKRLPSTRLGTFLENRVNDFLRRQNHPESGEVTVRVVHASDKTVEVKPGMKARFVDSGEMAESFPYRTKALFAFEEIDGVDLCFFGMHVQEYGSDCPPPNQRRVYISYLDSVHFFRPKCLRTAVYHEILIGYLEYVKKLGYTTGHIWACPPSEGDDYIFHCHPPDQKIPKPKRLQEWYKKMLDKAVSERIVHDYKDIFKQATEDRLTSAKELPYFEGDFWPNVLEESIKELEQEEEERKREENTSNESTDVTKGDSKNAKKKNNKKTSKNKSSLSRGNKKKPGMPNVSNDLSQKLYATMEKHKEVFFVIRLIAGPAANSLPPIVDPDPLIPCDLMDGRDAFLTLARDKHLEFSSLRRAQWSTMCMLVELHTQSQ
Experiment: QD-FRET p300 HAT assay, inhibitor response
Format: biochemical
Settings: 40 ng/ml p300 catalytic domain, 100 μM acetyl-CoA, 25 μM substrate peptide, 2 hr at 30° C.
Procedure: p300 assay: In a final volume of 14 μl, 25 μM substrate peptide was incubated with 40 ng/ml recombinant purified p300 catalytic domain (Millipore) in the presence or absence of 100 μM acetyl-CoA (Sigma-Alrich) and different concentrations of anacardic acid in 50 mM Tris-HCl buffer (pH 8.0) containing 0.1% (w/v) BSA (reaction buffer) for 2 hr at 30° C. An aliquot of this reaction mixture was transferred to a 10 μl solution of 50 nM quantum dots and 300 nM Alexa Fluor 647-labelled anti-AcK antibody to achieve a peptide to Qdot ratio of 40:1 and the mixture allowed to incubate for 30 min at room temperature. Fluorescence intensity data were collected with […] on a SpectraMax M5 microplate reader (Molecular Devices) using a 400 nm excitation source.
A synthetic peptide substrate for p300 containing an appending hexahistidine motif was exposed to p300 enzyme in the presence of acetyl-CoA to allow enzymatic acetylation of the peptide. […] This acetylation event was detected by means of an anti-acetyl lysine antibody labelled with a fluorescent dye, which binds selectively to the acetylated lysine residues of the quantum dot-bound peptide. […] This is indicated in the fluorescence spectra as a concomitant decrease in emission at 605 nm and enhanced emission at 670 nm from the Qdot and dye molecules respectively—see FIG. 8.

Q: For `CCCCCCCCCCCCCCCc1cccc(O)c1C(=O)O` [anacardic acid], which “effect of serial dilutions of inhibitor on dye-specific emission at 670 nm (energy transfer)” value is on record?
A: Its value is “dose-dependent decrease in dye-specific emission at 670 nm”.
